PubChem BioAssay (NCI)
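These data come from cells grown in 96-well plates and exposed to compound for 48 hours at five concentrations. Definition used: TGI = concentration required for complete inhibition of growth.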

Key:
Test in all cases: growth of human tumour cells (NCI), 48 h
HT29 colon = test system: HT29 colon
SK-MEL-28 melanoma = test system: SK-MEL-28 melanoma
CAKI-1 renal = test system: CAKI-1 renal
UACC-257 melanoma = test system: UACC-257 melanoma
RXF 393 renal = test system: RXF 393 renal
IGROV1 ovarian = test system: IGROV1 ovarian
DMS 114 small cell lung = test system: DMS 114 small cell lung
OVCAR-3 ovarian = test system: OVCAR-3 ovarian
DLD-1 colon = test system: DLD-1 colon
HL-60(TB) leukemia = test system: HL-60(TB) leukemia

Row | Structure (SMILES) | TGI (HT29 colon) [µM] | TGI (SK-MEL-28 melanoma) [µM] | TGI (CAKI-1 renal) [µM] | TGI (UACC-257 melanoma) [µM] | TGI (RXF 393 renal) [µM] | TGI (IGROV1 ovarian) [µM] | TGI (DMS 114 small cell lung) [µM] | TGI (OVCAR-3 ovarian) [µM] | TGI (DLD-1 colon) [µM] | TGI (HL-60(TB) leukemia) [µM]
1 | Cc1[nH]c2cc([N+](=O)[O-])ccc2c1[N+](=O)[O-] | 97 | 77.8 | 47.1 | 43.9 | 54.1 | > 100 | 33.6 | > 100 | > 100 | 55.1
2 | CN1CCN(c2nc(N)c(Br)c(Cl)n2)CC1 |  | > 100 | > 100 | > 100 | > 100 | > 100 | > 100 | > 100 | > 100 | > 100
3 | CC(=O)Nc1ccc(/C=c2\sc3nnc(-c4cccnc4)n3c2=O)cc1 | 34.5 | 33 | 35.3 | 49 | 37.2 | 32.5 | 32.4 | 34 | 40.7 | 42.9
4 | CC(=O)CC(=O)Nc1ccccc1C(F)(F)F |  | > 100 | > 100 |  | > 100 | > 100 | > 100 |  | > 100 | > 100
5 | CSc1nnc(C(C#N)C#N)nn1 | > 100 |  | > 100 | > 100 | > 100 | > 100 | > 100 | > 100 | > 100 | > 100
6 | CC1=C2C=CC(=O)C[C@@]2(C)CCC1 | > 100 | > 100 | > 100 | > 100 | > 100 | > 100 | > 100 | > 100 | > 100 | > 100
7 | COC(=O)[C@@]12C3=NO[C@]1(C(=O)OC)C(O[Si](C)(C)C(C)(C)C)[C@@H](OC(C)=O)[C@@H](OC(C)=O)[C@@H]2[C@@H](OCc1ccccc1)CC3 (some centres undefined) | > 100 | > 100 | > 100 | > 100 | 89.6 | > 100 | > 100 | > 100 | > 100 | > 100
8 | CCOC(=O)C1C(=O)CC(=O)C2CCCCC21 (centres undefined) |  | > 100 | > 100 | > 100 | > 100 | > 100 | > 100 | > 100 | > 100 | > 100
9 | CC1(C)C(=O)/C=C\C(=O)C(C)(C)C(=O)/C=C\C(=O)C(C)(C)C2=CC=C(O2)C(C)(C)C(=O)/C=C\C1=O | 8.45 | 10 | 7.91 | 16.6 | 4.73 | 24.9 | 21 | 9.41 | 3.61 | 2.24
